Results published in patent US20160237052A1, “Histamine-3 Receptor Antagonists” (MediSynergics, LLC, priority 2015, published 2016).
pKi: −log10 of the molar value. Like-named read-outs stand apart in the source and are kept apart here.

How the values were obtained:
H1 = H1 (Homo sapiens, UniProt P35367); assay: Histamine H1 receptor binding (NIMH PDSP); conditions: for inhibition at 10 µM: read-out: Inhibition (% at 10 μM)
Experimental: The compounds from the above Examples were tested for activity vs. histamine receptor subtypes (i.e., H1, H2, H3), at an initial concentration of 10 μM. Binding activity measurement was performed by the NIMH Psychoactive Drug Screening Program (PDSP) at the University of North Carolina Chapel Hill, N.C. […] Data (e.g., H3antagonist activity) may also be generated using a commercially available kit from Invitrogen/Thermo Fisher Scientific Inc. (Tango™ H3-bla U2OS DA Assay Kit).

H3 = H3 (UniProt Q9Y5N1); assay: Histamine H3 receptor binding (NIMH PDSP); conditions: H3 receptor subtype
Experimental: The compounds from the above Examples were tested for activity vs. histamine receptor subtypes (i.e., H1, H2, H3), at an initial concentration of 10 μM. Binding activity measurement was performed by the NIMH Psychoactive Drug Screening Program (PDSP) at the University of North Carolina Chapel Hill, N.C. The procedures employed by the PDSP are described in the NIMH PDSP Assay Protocol Book Version II (see, http://pdsp.med.unc.edu/PDSP %20Protocols %2011%202013-03-28.pdf). Data (e.g., H3antagonist activity) may also be generated using a commercially available kit from Invitrogen/Thermo Fisher Scientific Inc. (Tango™ H3-bla U2OS DA Assay Kit). Data for serotonin reuptake activity (SERT, % inhibition at 10 μM drug concentration; calculated Ki) were also generated by PDSP.

SERT = SERT (Homo sapiens, UniProt P31645); assay: Serotonin reuptake activity (SERT), PDSP; format: binding; conditions: for inhibition at 10 µM: 10 μM drug concentration; for pKi: calculated Ki
Chain of SERT (P31645 whole entry, species assumed): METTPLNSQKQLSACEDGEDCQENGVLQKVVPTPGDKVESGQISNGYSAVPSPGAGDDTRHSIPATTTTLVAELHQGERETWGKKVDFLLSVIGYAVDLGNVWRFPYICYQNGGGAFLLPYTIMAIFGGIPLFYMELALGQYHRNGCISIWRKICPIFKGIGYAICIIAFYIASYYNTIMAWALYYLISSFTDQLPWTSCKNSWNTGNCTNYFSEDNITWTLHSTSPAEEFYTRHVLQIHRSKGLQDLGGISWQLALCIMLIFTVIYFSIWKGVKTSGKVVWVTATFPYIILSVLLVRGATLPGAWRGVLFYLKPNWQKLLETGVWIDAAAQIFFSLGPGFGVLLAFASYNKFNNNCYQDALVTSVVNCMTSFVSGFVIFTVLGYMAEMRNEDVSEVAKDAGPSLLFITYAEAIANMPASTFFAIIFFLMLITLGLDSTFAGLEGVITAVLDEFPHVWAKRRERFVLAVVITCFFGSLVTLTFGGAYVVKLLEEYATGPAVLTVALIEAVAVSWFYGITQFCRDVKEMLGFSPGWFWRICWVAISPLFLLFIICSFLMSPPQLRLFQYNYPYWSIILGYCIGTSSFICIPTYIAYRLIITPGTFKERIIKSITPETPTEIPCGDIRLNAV

Chain of H1 (P35367 whole entry): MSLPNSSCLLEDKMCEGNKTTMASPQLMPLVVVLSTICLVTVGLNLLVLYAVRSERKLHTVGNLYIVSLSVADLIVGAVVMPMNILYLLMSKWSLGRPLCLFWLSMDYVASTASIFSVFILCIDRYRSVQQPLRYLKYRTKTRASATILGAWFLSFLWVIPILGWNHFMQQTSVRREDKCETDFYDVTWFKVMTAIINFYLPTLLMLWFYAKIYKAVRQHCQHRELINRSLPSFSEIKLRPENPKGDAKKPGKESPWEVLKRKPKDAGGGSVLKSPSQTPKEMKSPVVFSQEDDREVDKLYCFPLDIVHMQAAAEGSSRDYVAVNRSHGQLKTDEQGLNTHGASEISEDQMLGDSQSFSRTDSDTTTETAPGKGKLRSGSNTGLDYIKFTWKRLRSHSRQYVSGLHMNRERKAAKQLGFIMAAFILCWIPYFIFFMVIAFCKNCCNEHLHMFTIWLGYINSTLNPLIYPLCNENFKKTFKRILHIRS

Compound	pKi (H1)	inhibition at 10 µM (H1)	pKi (H3)	Inhibition (% at 10 μM) (H3)	inhibition at 10 µM (SERT)	pKi (SERT)	inhibition at 10 µM (H1; H1 receptor subtype, 10 μM)	pKi (H1; H1 receptor subtype, read-out: Ki)
CN(C)CCCC1(c2ccc(F)cc2)OCc2cc(CN3CCCCC3)ccc21 (stereo not drawn) [Example 1]	7.00	89.9%	7.70	99.6%	98.8%	7.54		
CN(C)CCCC1(c2ccc(F)cc2)OCc2cc(CN3CCN(C)CC3)ccc21 (stereo not drawn) [Example 2, 3-[5-((4-methylpiperazin-1-yl)methyl)-1-(4-fluorophenyl)-1,3-dihydro-2-benzofuran-1-yl]-N,N-dimethylpropan-1-amine]			6.81	89.8%	99.3%	7.51	89.8%	6.84
